In patent publication US20230127046A1, “G9a INHIBITOR” (RIKEN, priority 2019, published 2023):
pIC50: −log10 of the molar value.

Each compound was assayed against T1, recombinant human G9a protein (Homo sapiens, UniProt Q96KQ7) (assay: G9a inhibitory activity test (ALPHA)). Conditions: read-out: Inhibitory activity (G9a IC50).
T1 construct: purchased BPS Bioscience Inc. #51001
T1 sequence (Q96KQ7 785-1210 limits assumed): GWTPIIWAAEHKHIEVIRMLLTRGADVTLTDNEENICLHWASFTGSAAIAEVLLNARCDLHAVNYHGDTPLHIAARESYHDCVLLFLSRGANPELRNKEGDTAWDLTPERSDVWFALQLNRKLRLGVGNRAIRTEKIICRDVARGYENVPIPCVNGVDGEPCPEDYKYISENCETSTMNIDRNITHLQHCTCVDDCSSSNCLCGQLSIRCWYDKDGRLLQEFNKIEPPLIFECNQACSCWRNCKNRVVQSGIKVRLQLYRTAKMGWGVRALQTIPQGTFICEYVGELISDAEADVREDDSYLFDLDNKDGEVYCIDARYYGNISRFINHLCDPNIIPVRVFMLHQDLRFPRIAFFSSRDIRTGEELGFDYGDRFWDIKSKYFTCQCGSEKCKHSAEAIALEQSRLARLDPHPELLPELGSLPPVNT
Format: biochemical
How it was run: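 Human G9a (0.05 to 0.1 nM) in Tris pH 9.0 buffer preincubated with compound 10 min, then biotinylated histone H3 (1-21) peptide and SAM mixed 1:1 from 500 nM and 150 μM solutions, 1 h at room temperature. H3K9me2 detected by AlphaLISA acceptor/streptavidin donor beads; IC50 from percent inhibition relative to no-compound and no-enzyme controls.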
`CCCCC(NC(=O)c1ccc(N2CCN(C)CC2)cc1C)C(=O)Nc1ccc(OC2CCN(C)CC2)nc1` (stereo not drawn) [Example 11-1, 2-methyl-4-(4-methylpiperazin-1-yl)-N-[1-[[6-(1-methylpiperidin-4yl)oxypyridin-3-yl]amino]-1-oxohexan-2-yl]benzamide] showed a pIC50 of at most 6.70. With `CCCCC(NC(=O)CC1CCCCC1)C(=O)Nc1ccc(OC2CCN(C)CC2)nc1` (stereo not drawn) [Example 11-2] the pIC50 was at most 6.70. Work on `CCCCC(NC(=O)c1sc(-c2ccccc2)nc1C(F)(F)F)C(=O)Nc1ccc(OC2CCN(C)CC2)nc1` (stereo not drawn) [Example 11-3] yielded a pIC50 of 6.70 to 7.30. `CCCCC(NC(=O)c1ccc(Nc2ccncc2)cc1)C(=O)Nc1ccc(OC2CCN(C)CC2)nc1` (stereo not drawn) [Example 11-5] gave a pIC50 of over 7.30. With `CCCCC(NC(=O)c1ccc(Nc2ccccc2)cc1C)C(=O)Nc1ccc(OC2CCN(C)CC2)nc1` (stereo not drawn) [Example 11-6] the pIC50 was at most 6.70. Work on `CCCCC(NC(=O)Cc1ccccc1C)C(=O)Nc1ccc(OC2CCN(C)CC2)nc1` (stereo not drawn) [Example 11-7] yielded a pIC50 of at most 6.70. `CCCCC(NC(=O)Cc1ccc(C)cc1)C(=O)Nc1ccc(OC2CCN(C)CC2)nc1` (stereo not drawn) [Example 11-8] gave a pIC50 of at most 6.70. `CCCCC(NC(=O)Cc1ccc(Cl)cc1)C(=O)Nc1ccc(OC2CCN(C)CC2)nc1` (stereo not drawn) [Example 11-9] showed a pIC50 of at most 6.70. `CCCCC(NC(=O)c1sc(-c2ccccc2)nc1C)C(=O)Nc1ccc(OC2CCN(C)CC2)nc1` (stereo not drawn) [Example 11-10] showed a pIC50 of at most 6.70. `CCCCC(NC(=O)c1nc(-c2ccccc2)sc1C)C(=O)Nc1ccc(OC2CCN(C)CC2)nc1` (stereo not drawn) [Example 11-11] gave a pIC50 of at most 6.70. `CCCCC(NC(=O)C(c1ccccc1)c1ccccc1)C(=O)Nc1ccc(OC2CCN(C)CC2)nc1` (stereo not drawn) [Example 12-1, 2-[(2,2-diphenylacetyl)amino]-N-[6-(1-methylpiperidin-4-yl)oxypyridin-3-yl]hexane amide] showed a pIC50 of 6.70 to 7.30. `Cc1c(C(=O)N[C@@H](CCC2CC2)C(=O)N[C@@H](C)c2ccccc2)[nH]c2c1C(=O)CC(C)(C)C2` [Example 13-1, N-((S)-4-cyclopropyl-1-oxo-1-(((S)-1-phenylethyl)amino)butan-2-yl)-3,6,6-trimethyl-4-oxo-4,5,6,7-tetrahydro-1H-indole-2-carboxamide] showed a pIC50 of over 7.30. `Cc1c(C(=O)N[C@H](CCC2CC2)C(=O)N[C@@H](C)c2ccccc2)[nH]c2c1C(=O)CC(C)(C)C2` [Example 13-2, N-((R)-4-Cyclopropyl-1-oxo-1-(((S)-1-phenylethyl)amino)butan-2-yl)-3,6,6-trimethyl-4-oxo-4,5,6,7-tetrahydro-1H-indole-2-carboxamide] was tested, and the pIC50 was at most 6.70. Compound `Cc1c(C(=O)N[C@@H](CCC2CC2)C(=O)N(C)[C@H](C)c2ccccc2)[nH]c2c1C(=O)CC(C)(C)C2` [Example 13-3] has a pIC50 of at most 6.70. `Cc1c(C(=O)N[C@H](CCC2CC2)C(=O)N(C)[C@H](C)c2ccccc2)[nH]c2c1C(=O)CC(C)(C)C2` [Example 13-4] showed a pIC50 of at most 6.70. In the case of `Cc1c(C(=O)N[C@@H](CCC2CC2)C(=O)N(C)[C@@H](C)c2ccccc2)[nH]c2c1C(=O)CC(C)(C)C2` [Example 13-5], the pIC50 was at most 6.70. `Cc1c(C(=O)N[C@H](CCC2CC2)C(=O)N(C)[C@@H](C)c2ccccc2)[nH]c2c1C(=O)CC(C)(C)C2` [Example 13-6] showed a pIC50 of at most 6.70. In the case of `CCc1cc(C)ccc1NC(=O)C(CCC1CC1)NC(=O)c1[nH]c2c(c1C)C(=O)CC(C)(C)C2` (stereo not drawn) [Example 14-1, N-[4-cyclopropyl-1-(2-ethyl-4-methylamino)-1-oxobutan-2-yl]-3,6,6-trimethyl-4-oxo-5,7-dihydro-1H-indole-2-carboxamide], the pIC50 was over 7.30. Compound `CCCCC(NC(=O)c1[nH]c2c(c1C)C(=O)CC(C)(C)C2)C(=O)Nc1ccc(C)cc1CC` (stereo not drawn) [Example 14-2] has a pIC50 of over 7.30. For `Cc1c(C(=O)N[C@@H](CCC2CC2)C(=O)Nc2ccc(C#N)cc2)[nH]c2c1C(=O)CC(C)(C)C2` [Example 15-1, N-[(2S)-1-(4-cyanoanilino)-4-cyclopropyl-1-oxobutan-2-yl]-3,6,6-trimethyl-4-oxo-5,7-dihydro-1H-indole-2-carboxamide], the pIC50 was over 7.30. Compound `CCc1cc(C#N)ncc1NC(=O)C(CCC1CC1)NC(=O)c1[nH]c2c(c1C)C(=O)CC(C)(C)C2` (stereo not drawn) [Example 15-2] has a pIC50 of 6.70 to 7.30. With `CCc1c(C(=O)N[C@@H](CCC2CC2)C(=O)Nc2ccc(C#N)cc2)[nH]c2c1C(=O)CC(C)(C)C2` [Example 15-3] the pIC50 was 6.70 to 7.30. For `CC(C)c1c(C(=O)N[C@@H](CCC2CC2)C(=O)Nc2ccc(C#N)cc2)[nH]c2c1C(=O)CC(C)(C)C2` [Example 15-4], the pIC50 was 6.70 to 7.30. Compound `CCCCC(NC(=O)c1[nH]c2c(c1C)C(=O)CC(C)(C)C2)C(=O)NCc1ccc(CO)cc1` (stereo not drawn) [Example 16, N-[1-[[4-(hydroxymethyl)phenyl]methylamino]-1-oxohexan-2-yl]-3,6,6-trimethyl-4-oxo-5,7-dihydro-1H-indole-2-carboxamide] has a pIC50 of at most 6.70. Compound `CCCC[C@@H](CNc1ccccc1)NC(=O)c1[nH]c2c(c1C)C(=O)CC(C)(C)C2` [Example 17-1, (S)-3,6,6-trimethyl-4-oxo-N-(1-(phenylamino)hexan-2-yl)-4,5,6,7-tetrahydro-1H-indole-2-carboxamide] has a pIC50 of at most 6.70. Work on `CCCC[C@@H](CNc1ccc(N2CCN(C)CC2)cc1)NC(=O)c1[nH]c2c(c1C)C(=O)CC(C)(C)C2` [Example 17-2] yielded a pIC50 of at most 6.70. Compound `CCCCC(NC(=O)c1[nH]c2c(c1C)C(=O)CC(C)(C)C2)C(=O)Nc1cccc(CN(C)C)c1` (stereo not drawn) [Example 18-1, N-[1-[3-[(dimethylamino)methyl]anilino]-1-oxohexan-2-yl]-3,6,6-trimethyl-4-oxo-5,7-dihydro-1H-indole-2-carboxamide] has a pIC50 of over 7.30. `CCCCC(NC(=O)c1[nH]c2c(c1C)C(=O)CC(C)(C)C2)C(=O)Nc1cccc(CN2CCC(F)CC2)c1` (stereo not drawn) [Example 18-2] gave a pIC50 of over 7.30. For `CCCCC(NC(=O)c1[nH]c2c(c1C)C(=O)CC(C)(C)C2)C(=O)Nc1ccc(CN(C)C)cc1` (stereo not drawn) [Example 18-3], the pIC50 was over 7.30. With `CCCCC(NC(=O)c1[nH]c2c(c1C)C(=O)CC(C)(C)C2)C(=O)NCc1ccc(CNC(C)(C)C)cc1` (stereo not drawn) [Example 18-4] the pIC50 was over 7.30. In the case of `CCCCC(NC(=O)c1[nH]c2c(c1C)C(=O)CC(C)(C)C2)C(=O)NCc1ccc(CN2CCOCC2)cc1` (stereo not drawn) [Example 18-5], the pIC50 was at most 6.70. In the case of `CCCCC(NC(=O)c1[nH]c2c(c1C)C(=O)CC(C)(C)C2)C(=O)NCc1ccc(CNC)cc1` (stereo not drawn) [Example 18-6], the pIC50 was over 7.30. In the case of `CCCCC(NC(=O)c1[nH]c2c(c1C)C(=O)CC(C)(C)C2)C(=O)NCc1ccc(CN2CCCC(F)(F)C2)cc1` (stereo not drawn) [Example 18-7], the pIC50 was at most 6.70. `CCCCC(NC(=O)c1[nH]c2c(c1C)C(=O)CC(C)(C)C2)C(=O)NCc1ccc(CN2CCC(F)(F)CC2)cc1` (stereo not drawn) [Example 18-8] was tested, and the pIC50 was at most 6.70. In the case of `CCCCC(NC(=O)c1[nH]c2c(c1C)C(=O)CC(C)(C)C2)C(=O)NCc1ccc(CN2CCCCC2)cc1` (stereo not drawn) [Example 18-9], the pIC50 was over 7.30. For `CCCCC(NC(=O)c1[nH]c2c(c1C)C(=O)CC(C)(C)C2)C(=O)NCc1ccc(CN2CCC(F)CC2)cc1` (stereo not drawn) [Example 18-10], the pIC50 was over 7.30. `CCCCC(NC(=O)c1[nH]c2c(c1C)C(=O)CC(C)(C)C2)C(=O)NCc1ccc(CN2CCCC2)cc1` (stereo not drawn) [Example 18-11] was tested, and the pIC50 was over 7.30. With `CCCCC(NC(=O)c1[nH]c2c(c1C)C(=O)CC(C)(C)C2)C(=O)NCc1ccc(CN(CC)CC)cc1` (stereo not drawn) [Example 18-12] the pIC50 was over 7.30. Compound `CCCCC(NC(=O)c1[nH]c2c(c1C)C(=O)CC(C)(C)C2)C(=O)NCc1ccc(CN2CCC(C)(C)CC2)cc1` (stereo not drawn) [Example 18-13] has a pIC50 of over 7.30. Compound `CCCCC(NC(=O)c1[nH]c2c(c1C)C(=O)CC(C)(C)C2)C(=O)NCc1ccc(CN2CCC2)cc1` (stereo not drawn) [Example 18-14] has a pIC50 of over 7.30. For `CCCCC(NC(=O)c1[nH]c2c(c1C)C(=O)CC(C)(C)C2)C(=O)NCc1ccc(CCCN)cc1` (stereo not drawn) [Example 19, N-[1-[[4-(3-aminopropyl)phenyl]methylamino]-1-oxohexan-2-yl]-3,6,6-trimethyl-4-oxo-5,7-dihydro-1H-indole-2-carboxamide], the pIC50 was over 7.30. In the case of `CCCCC(NC(=O)c1[nH]c2c(c1C)C(=O)CC(C)(C)C2)C(=O)Nc1ccc(C(N)=O)cc1` (stereo not drawn) [Example 20-1, N-[1-(4-carbamoylanilino)-1-oxohexan-2-yl]-3,6,6-trimethyl-4-oxo-5,7-dihydro-1H-indole-2-carboxamide], the pIC50 was at most 6.70. With `CCCCC(NC(=O)c1[nH]c2c(c1C)C(=O)CC(C)(C)C2)C(=O)NCc1ccc(C(=O)N(C)C)cc1` (stereo not drawn) [Example 20-2] the pIC50 was at most 6.70. `CCCCC(NC(=O)c1[nH]c2c(c1C)C(=O)CC(C)(C)C2)C(=O)Nc1ccc(N)cc1` (stereo not drawn) [Example 21, N-[1-(4-aminoanilino)-1-oxohexan-2-yl]-3,6,6-trimethyl-4-oxo-5,7-dihydro-1H-indole-2-carboxamide] gave a pIC50 of at most 6.70. For `CCCC[C@H](NC(=O)c1[nH]c2c(c1C)C(=O)CC(C)(C)C2)C(=O)NCc1ccc(N2CCN(CC(C)C)CC2)cc1` [Example 22-1], the pIC50 was at most 6.70. `CCCC[C@H](NC(=O)c1[nH]c2c(c1C)C(=O)CC(C)(C)C2)C(=O)NCc1ccc(N2CCN(CC)CC2)cc1` [Example 22-3] showed a pIC50 of at most 6.70. For `CCCC[C@H](NC(=O)c1[nH]c2c(c1C)C(=O)CC(C)(C)C2)C(=O)NCc1ccc(N2CCN(CCC)CC2)cc1` [Example 22-4], the pIC50 was at most 6.70. `CCCC[C@H](NC(=O)c1[nH]c2c(c1C)C(=O)CC(C)(C)C2)C(=O)NCc1ccc(N2CCN(CCCC)CC2)cc1` [Example 22-5] showed a pIC50 of 6.70 to 7.30.
